Reference: patent US20250171438A1 (Agios Pharmaceuticals, Inc., priority 2022, published 2025)

What follows are compounds tested against T1, human PAH with the R408W mutation (Homo sapiens, UniProt P00439, R408W) (assay: Cell Based Phenylalanine Flux Assay). Details: A375 cells expressing human R408W PAH; 24 hrs compound incubation; 13C-Tyrosine by LC-MS; average where tested multiple times; read-out: AC50.
T1 construct: expressed in transfected cells
T1 sequence (P00439 1-452 R408W): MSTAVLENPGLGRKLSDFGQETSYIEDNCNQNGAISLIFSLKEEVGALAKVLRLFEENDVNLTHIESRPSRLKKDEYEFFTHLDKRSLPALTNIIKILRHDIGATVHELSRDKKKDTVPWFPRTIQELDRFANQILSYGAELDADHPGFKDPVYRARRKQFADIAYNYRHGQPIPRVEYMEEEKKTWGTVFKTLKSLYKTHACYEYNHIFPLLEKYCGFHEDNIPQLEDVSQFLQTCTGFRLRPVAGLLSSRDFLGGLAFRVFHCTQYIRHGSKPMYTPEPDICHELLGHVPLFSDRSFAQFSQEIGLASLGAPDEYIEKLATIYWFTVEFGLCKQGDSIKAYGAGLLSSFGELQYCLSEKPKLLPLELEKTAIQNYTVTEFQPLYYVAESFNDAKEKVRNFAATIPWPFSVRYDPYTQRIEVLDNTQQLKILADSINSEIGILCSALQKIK
Experimental: Compounds were resuspended in DMSO, and 2-fold serial dilutions were performed to generate a 10-point dose curve. Compounds were added to plated cells in a total volume of 100 pal, and a final DMSO concentration of 0.5%. Each compound was tested in duplicate. Following compound addition, cells were placed in a 5% CO2, 37° C. tissue culture incubator for 24 hrs. After the incubation period, 20 μM sepiapterin and 800 μM 13C9,15N-Phenylalanine were added. After 4 hours, cell media was removed. An aliquot of 10 μl of cell media was combined with 200 μl of extraction buffer (80% acetonitrile/20% H2O) for each well. Determination of ^13C-Tyrosine concentration was assessed by liquid chromatography mass spectrometry.
Where a compound was tested multiple times, the average value of the tests is reported.

Compound	AC50 [µM]
O=C(c1oc(NC2CC2)nc1C(F)(F)F)N1CCc2[nH]cnc2[C@@H]1c1nc2c(F)cccc2s1 [Example 1596, (R)-(2-(cyclopropylamino)-4-(trifluoromethyl)oxazol-5-yl)(4-(4-fluorobenzo[d]thiazol-2-yl)-6,7-dihydro-1H-imidazo[4,5-c]pyridin-5(4H)-yl)methanone]	< 0.5
O=C(c1oc(N2CCOCC2)nc1C(F)(F)F)N1CCc2[nH]cnc2[C@H]1c1nc2c(F)cccc2s1 [Example 1597, (S)-(4-(4-fluorobenzo[d]thiazol-2-yl)-6,7-dihydro-1H-imidazo[4,5-c]pyridin-5(4H)-yl)(2-morpholino-4-(trifluoromethyl)oxazol-5-yl)methanone]	< 0.5
O=C(c1oc(N2CCOCC2)nc1C(F)(F)F)N1CCc2[nH]cnc2[C@@H]1c1nc2c(F)cccc2s1 [Example 1598, (R)-(4-(4-fluorobenzo[d]thiazol-2-yl)-6,7-dihydro-1H-imidazo[4,5-c]pyridin-5(4H)-yl)(2-morpholino-4-(trifluoromethyl)oxazol-5-yl)methanone]	< 0.5
CN(C)CCc1ccc2c(C(=O)N3CCc4[nH]cnc4[C@H]3c3nc4c(F)cccc4s3)cnn2c1 [Example 1599, (S)-(6-(2-(dimethylamino)ethyl)pyrazolo[1,5-a]pyridin-3-yl)(4-(4-fluorobenzo[d]thiazol-2-yl)-6,7-dihydro-1H-imidazo[4,5-c]pyridin-5(4H)-yl)methanone]	0.5 to 1
CN(C)CCc1ccc2c(C(=O)N3CCc4[nH]cnc4[C@@H]3c3nc4c(F)cccc4s3)cnn2c1 [Example 1600, (R)-(6-(2-(dimethylamino)ethyl)pyrazolo[1,5-a]pyridin-3-yl)(4-(4-fluorobenzo[d]thiazol-2-yl)-6,7-dihydro-1H-imidazo[4,5-c]pyridin-5(4H)-yl)methanone]	1 to 5
O=C(c1nnc(-c2ccccn2)o1)N1CCc2[nH]cnc2[C@@H]1c1nc2c(F)cccc2s1 [Example 1601, (R)-(4-(4-fluorobenzo[d]thiazol-2-yl)-6,7-dihydro-1H-imidazo[4,5-c]pyridin-5(4H)-yl)(5-(pyridin-2-yl)-1,3,4-oxadiazol-2-yl)methanone]	0.5 to 1
O=C(c1nnc(-c2ccccn2)o1)N1CCc2[nH]cnc2[C@H]1c1nc2c(F)cccc2s1 [Example 1602, (S)-(4-(4-fluorobenzo[d]thiazol-2-yl)-6,7-dihydro-1H-imidazo[4,5-c]pyridin-5(4H)-yl)(5-(pyridin-2-yl)-1,3,4-oxadiazol-2-yl)methanone]	< 0.5
Cn1nccc1C(=O)N1CCc2[nH]cnc2[C@H]1c1nc2c(F)cccc2s1 [Example 1603]	1 to 5
Cn1nccc1C(=O)N1CCc2[nH]cnc2[C@@H]1c1nc2c(F)cccc2s1 [Example 1604, (R)-(4-(4-fluorobenzo[d]thiazol-2-yl)-6,7-dihydro-1H-imidazo[4,5-c]pyridin-5(4H)-yl)(1-methyl-1H-pyrazol-5-yl)methanone]	> 5
O=C(c1ccnn1-c1ccccc1)N1CCc2[nH]cnc2[C@H]1c1nc2c(F)cccc2s1 [Example 1605]	0.5 to 1
O=C(c1ccnn1-c1ccccc1)N1CCc2[nH]cnc2[C@@H]1c1nc2c(F)cccc2s1 [Example 1606, (R)-(4-(4-fluorobenzo[d]thiazol-2-yl)-6,7-dihydro-1H-imidazo[4,5-c]pyridin-5(4H)-yl)(1-phenyl-1H-pyrazol-5-yl)methanone]	1 to 5
C[C@H]1CN(C(=O)c2ocnc2C2CC2)[C@@H](c2nc3c(F)cccc3s2)c2nc[nH]c21 [Example 1607, (4-cyclopropyloxazol-5-yl)((4R,7S)-4-(4-fluorobenzo[d]thiazol-2-yl)-7-methyl-6,7-dihydro-1H-imidazo[4,5-c]pyridin-5(4H)-yl)methanone]	1 to 5
C[C@H]1CN(C(=O)c2ocnc2C2CC2)[C@H](c2nc3c(F)cccc3s2)c2nc[nH]c21 [Example 1608, (4-cyclopropyloxazol-5-yl)((4S,7S)-4-(4-fluorobenzo[d]thiazol-2-yl)-7-methyl-6,7-dihydro-1H-imidazo[4,5-c]pyridin-5(4H)-yl)methanone]	0.5 to 1
CN(C)c1nnc(C(=O)N2CCc3[nH]cnc3[C@H]2c2nc3ccccc3s2)o1 [Example 1609]	< 0.5
CN(C)c1nnc(C(=O)N2CCc3[nH]cnc3[C@@H]2c2nc3ccccc3s2)o1 [Example 1610, (R)-(4-(benzo[d]thiazol-2-yl)-6,7-dihydro-1H-imidazo[4,5-c]pyridin-5(4H)-yl)(5-(dimethylamino)-1,3,4-oxadiazol-2-yl)methanone]	1 to 5
O=C(c1oc(-c2ccccn2)nc1C(F)(F)F)N1CCc2[nH]cnc2[C@H]1c1nc2c(F)cccc2s1 [Example 1611, (S)-(4-(4-fluorobenzo[d]thiazol-2-yl)-6,7-dihydro-1H-imidazo[4,5-c]pyridin-5(4H)-yl)(2-(pyridin-2-yl)-4-(trifluoromethyl)oxazol-5-yl)methanone]	< 0.5
O=C(c1oc(-c2ccccn2)nc1C(F)(F)F)N1CCc2[nH]cnc2[C@@H]1c1nc2c(F)cccc2s1 [Example 1612, (R)-(4-(4-fluorobenzo[d]thiazol-2-yl)-6,7-dihydro-1H-imidazo[4,5-c]pyridin-5(4H)-yl)(2-(pyridin-2-yl)-4-(trifluoromethyl)oxazol-5-yl)methanone]	< 0.5
Cn1cc(C(=O)N2CCc3[nH]cnc3[C@H]2c2nc3c(F)cccc3s2)c(C(F)(F)F)n1 [Example 1613, (S)-(4-(4-fluorobenzo[d]thiazol-2-yl)-6,7-dihydro-1H-imidazo[4,5-c]pyridin-5(4H)-yl)(1-methyl-3-(trifluoromethyl)-1H-pyrazol-4-yl)methanone]	< 0.5
Cn1cc(C(=O)N2CCc3[nH]cnc3[C@@H]2c2nc3c(F)cccc3s2)c(C(F)(F)F)n1 [Example 1614, (R)-(4-(4-fluorobenzo[d]thiazol-2-yl)-6,7-dihydro-1H-imidazo[4,5-c]pyridin-5(4H)-yl)(1-methyl-3-(trifluoromethyl)-1H-pyrazol-4-yl)methanone]	< 0.5
O=C(c1ocnc1C(F)F)N1CCc2[nH]cnc2[C@H]1c1nc2c(F)cccc2s1 [Example 1615]	< 0.5
O=C(c1ocnc1C(F)F)N1CCc2[nH]cnc2[C@@H]1c1nc2c(F)cccc2s1 [Example 1616, (R)-(4-(difluoromethyl)oxazol-5-yl)(4-(4-fluorobenzo[d]thiazol-2-yl)-6,7-dihydro-1H-imidazo[4,5-c]pyridin-5(4H)-yl)methanone]	0.5 to 1
CN(C)Cc1ccc2c(C(=O)N3CCc4[nH]cnc4[C@H]3c3nc4c(F)cccc4s3)cnn2c1 [Example 1619, (S)-(6-((dimethylamino)methyl)pyrazolo[1,5-a]pyridin-3-yl)(4-(4-fluorobenzo[d]thiazol-2-yl)-6,7-dihydro-1H-imidazo[4,5-c]pyridin-5(4H)-yl)methanone]	0.5 to 1
CN(C)Cc1ccc2c(C(=O)N3CCc4[nH]cnc4[C@@H]3c3nc4c(F)cccc4s3)cnn2c1 [Example 1620, (R)-(6-((dimethylamino)methyl)pyrazolo[1,5-a]pyridin-3-yl)(4-(4-fluorobenzo[d]thiazol-2-yl)-6,7-dihydro-1H-imidazo[4,5-c]pyridin-5(4H)-yl)methanone]	> 5
O=C(c1oc(C2CC2)nc1C(F)F)N1CCc2[nH]cnc2[C@H]1c1nc2ccccc2s1 [Example 1621]	< 0.5
